Molecules are shown by their SMILES. Read-outs that look alike come from different tables or passages of the source.

In the assay the target is T1, hFPR2 (Homo sapiens, UniProt P25090).
T1 construct: expressed in transfected cells
T1 sequence (P25090 1-351): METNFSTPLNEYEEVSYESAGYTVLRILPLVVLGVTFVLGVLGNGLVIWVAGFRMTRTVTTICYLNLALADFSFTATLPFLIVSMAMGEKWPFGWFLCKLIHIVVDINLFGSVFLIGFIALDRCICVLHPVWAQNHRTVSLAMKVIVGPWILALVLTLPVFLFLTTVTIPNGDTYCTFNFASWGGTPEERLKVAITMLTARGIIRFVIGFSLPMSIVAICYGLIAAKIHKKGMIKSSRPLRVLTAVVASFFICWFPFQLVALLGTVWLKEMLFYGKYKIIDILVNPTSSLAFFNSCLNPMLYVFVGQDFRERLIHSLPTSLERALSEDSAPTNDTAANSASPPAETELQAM
Briefly: Akt1/2/3 (Ser473) phosphorylation in hFPR2-FlpIn-CHO cells. To be noted: for ΔLog(τ/KA), Akt 1/2/3 (Ser473) phosphorylation, hFPR2-Flpln-CHO: normalized transduction coefficient, reference agonist Cmpd43; for Log(τ/KA), Akt 1/2/3 (Ser473) phosphorylation, hFPR2-Flpln-CHO: transduction coefficient. It counts as cell-based. The text has this: cDNDA construct and generation of stable cell lines: cDNA in pcDNA3.1^+ encoding the human formyl peptide receptors (FPR) subtypes, hFPR1, hFPR2 and hFPR3 was obtained from Invitrogen. The sequences for 3 hFPR receptors were amplified by PCR and cloned into the Gateway entry vector, pDONR202™, using the BP clonase enzyme mix, according to the manufactures' instructions (Invitrogen Inc, Carlsbad, Calif., USA). All hFPR receptors constructs in pDONR201™ were subsequently transfected into the pEF5/FRT/V5/dest vector using the LR clonase enzyme mix (Invitrogen). Receptor constructs (pEF5/FRT/V5/dest) were used to transfect FIp-In CHO cells as described previously (Valant C et al., PNAS, 2014). Cells were selected using 500 μg/mL hydromycin to generate cell lines stably expressing each receptor construct. Cells were maintained and cultured in high glucose DMEM supplemented with 10% FBS, 16 mM HEPES and 500 μg/mL hydromycin at 37° C. under a humidified atmosphere containing 5% CO2.
In the various assays described below, cells were plated into 96-well transparent cell culture plates at 4×10^4 cells per well, cultured overnight in serum-free media at 37° C. in 5% CO2.
Measurement of Akt1/2/3 phosphorylation and Akt 1: The same lysate was used for measurement of Akt1/2/3 phosphorylation (Ser473) and Akt1 (Thr308). Cells were lysed in SureFire lysis buffer and transferred to 384-well opaque proxiplates. Under low-light conditions, a 1:10:40 (v:v:v) dilution of AlphaScreen acceptor beads:Surefire activation buffer:Surefire reaction buffer was prepared and the plate was incubated in the dark at RT for 2 h. Then, a 1:20 (v:v) dilution of AlphaScreen donor beads/dilution was prepared and incubated in the dark at RT for another 2 h, before the fluorescence signal was measured by used of a Fusion-α plate reader (PerkinElmer Life and Analytical Sciences) with standard AlphaScreen settings. Receptor mediated phosphorylation of Akt1/2/3 (Ser473) and Akt1 (Thr308) were determined using the AlphaScreen™ […] SureFire™ kit, as per as per manufacturer's instructions. Data were normalized to the maximal response elicited by 10% (v:v) FBS at the same time point.
Data analysis: All data were analysed using GraphPad Prism 6.0 (GraphPad Software, San Deigo, Calif., USA). Where appropriate, concentration-response curves were fitted to derive the maximal agonist effect (Emax), and the ligand potency estimate (pEC50), where Emax is the maximal possible response of the system (not the agonist), basal is the basal level of response in the absence of agonist, and pEC50 is the negative logarithm of the agonist concentration that gives a response halfway between Emax and basal.
In the present study, FIp-IN CHO cells and Gateway plasmid were obtained from Invitrogen Inc (Carlsbad, Calif., USA). The sequences for all 3 known human FPRs (hFPR1, hFPR2 and hFPR3) were amplified by PCR and cloned into the Gateway entry vector, pDONR202TM, using the BP clonase enzyme mix, according to the manufacturers' instructions. The hFPR pDONR201TM constructs were subsequently transfected into the pEF5/FRT/V5/dest vector using the LR clonase enzyme mix (Invitrogen). Receptor constructs (pEF5/FRT/V5/dest) were used to transfect FIp-IN CHO cells, as described previously (Valant et al. 2014). Cells were selected using 500 μg/mL hydromycin to generate cell lines stably expressing each human receptor construct. Cells were maintained and cultured in high glucose Dulbecco's modified eagle medium (DMEM) supplemented with 10% fetal bovine serum (FBS, from JRH Biosciences, Lenexa, Kans., USA) and 500 μg/mL hydromycin B (Invitrogen Inc) at 37° C. under a humidified atmosphere containing 5% CO2. Cell were plated into 96-well transparent cell culture plates at 4×10^4 cells per well, cultured overnight in serum-free media at 37° C. in 5% CO2.

The mark [1] stands for this setting: Table 3, percentage of Akt1/2/3 phosphorylation elicited by 10% FBS, read-out: Emax (%), Akt 1/2/3 (Ser473), hFPR2-Flpln-CHO.
Where [2] appears, read: Table 8, percent of response elicited by 10% FBS, read-out: Emax, Akt 1/2/3 (Ser473) phosphorylation, hFPR2-Flpln-CHO.

Turning to `CSCC[C@H](NC=O)C(=O)N[C@@H](CC(C)C)C(=O)N[C@@H](Cc1ccccc1)C(=O)O` [fMLP, N-formyl-Met-Leu-Phe], under setting [1], the Emax was found to be 13 ± 4%. In addition, for the setting “Table 8”, the “ΔLog(τ/KA), Akt 1/2/3 (Ser473) phosphorylation, hFPR2-Flpln-CHO” value is reported as −2.0 ± 0.2 and the “Log(τ/KA), Akt 1/2/3 (Ser473) phosphorylation, hFPR2-Flpln-CHO” value is listed as 4.9 ± 0.2. Also, under setting [2], the Emax was 20 ± 4%.

`CC(C)C1C(NC(=O)Nc2ccc(Cl)cc2)C(=O)N(c2ccccc2)N1C` (stereo not shown) [BIDI-002]: the Emax under setting [1] was 30 ± 6% and the Emax under setting [2] was determined as 30 ± 6%. The EC50 (Table 3, read-out: pEC50, Akt 1/2/3 (Ser473), hFPR2-Flpln-CHO (converted)) is 145 nM and the EC50 (Table 8, read-out: pEC50, Akt 1/2/3 (Ser473) phosphorylation, hFPR2-Flpln-CHO (converted)) is 158 nM. Besides, the “ΔLog(τ/KA), Akt 1/2/3 (Ser473) phosphorylation, hFPR2-Flpln-CHO” value (Table 8) is 0.0. Also, the “Log(τ/KA), Akt 1/2/3 (Ser473) phosphorylation, hFPR2-Flpln-CHO” value (Table 8) is recorded as 6.9 ± 0.4.
